{"source": "paper PMC10079702", "about": "“Study of the inhibition effects on glutathione peroxidase immobilized on MNPs using a stopped-flow microfluidic system” (Analytical and Bioanalytical Chemistry, 2023)", "molecular_target": "T1, glutathione peroxidase (GPx) (Bos taurus, UniProt P00435)", "T1 construct": "gene GPX1; selenoprotein; EDC-coupled to magnetic nanoparticles for the assay", "T1 sequence (P00435 1-205)": "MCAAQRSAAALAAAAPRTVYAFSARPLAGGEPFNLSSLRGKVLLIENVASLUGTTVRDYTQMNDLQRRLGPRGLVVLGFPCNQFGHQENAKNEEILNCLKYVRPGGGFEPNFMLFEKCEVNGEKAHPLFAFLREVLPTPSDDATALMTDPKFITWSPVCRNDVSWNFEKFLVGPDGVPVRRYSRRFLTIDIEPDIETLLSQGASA", "experiment": "stopped-flow microfluidic fluorimetry of competing homovanillic acid dimerization, Lineweaver-Burk", "type": "biochemical", "conditions": "GPx immobilized on magnetic nanoparticles; GSH, H2O2, HVA; Tris-HCl 50 mmol/L pH 9, 30 °C; stated non-competitive; listed as at 1 µmol/L inhibitor; printed unit is not a concentration", "from_the_text": "stopped-flow microfluidic fluorimetry of competing homovanillic acid dimerization, Lineweaver-Burk on glutathione peroxidase (GPx)"}
{"smiles": "CC(C)(C)OO", "note": "[t-butyl hydroperoxide]", "values": [{"measurement": "KI", "result": 117.09, "unit": "µmol/L/s"}]}
